Data taken from ChEMBL document CHEMBL5104172, “Design, synthesis, and antibacterial activity of derivatives of Tryptophanyl-tRNA synthetase inhibitor indolmycin” (Eur J Med Chem, 2022).
≈ marks a conversion by molar mass, not a printed value.

What was measured:
Type in all cases: functional
Staphylococcus aureus [1] = experiment: Antibacterial activity against Staphylococcus aureus ATCC 29213 measured by liquid dilution method
Escherichia coli = experiment: Antibacterial activity against Escherichia coli ATCC 25922 measured by liquid dilution method
Staphylococcus aureus [2] = experiment: Antibacterial activity against methicillin-resistant Staphylococcus aureus NRS384 measured by liquid dilution method

SMILES	MIC (Staphylococcus aureus [1]) [µg/mL]	MIC (Escherichia coli) [µg/mL]	MIC (Staphylococcus aureus [2]) [µg/mL]
CNC1=NC(=O)C(C(C)c2c[nH]c3cccc(Cl)c23)O1 (racemic)	1 (≈ 3.43 µM)	128 (≈ 439 µM)	2 (≈ 6.86 µM)
CNC1=NC(=O)C(C(C)c2c[nH]c3cccc(C)c23)S1 (racemic)	4 (≈ 13.9 µM)	> 128	> 128
CNC1=NC(=O)C(C(C)c2c[nH]c3cccc(OC)c23)O1 (racemic)	128 (≈ 445 µM)	16 (≈ 55.7 µM)	> 128
CNC1=NC(=O)C(C(C)c2c[nH]c3ccc(N4CCCCC4)cc23)O1 (racemic)	> 128	> 128	> 128
CNC1=NC(=O)C(C(C)c2c[nH]c3ccccc23)S1 (racemic)	4 (≈ 14.6 µM)	> 128	> 128
CCN(CC)c1cccc2[nH]cc(C(C)C3OC(NC)=NC3=O)c12 (racemic)	64 (≈ 195 µM)	> 128	> 128
CNC1=NC(=O)C(C(C)c2c[nH]c3cccc(Br)c23)S1 (racemic)	16 (≈ 45.4 µM)	> 128	> 128
CNC1=NC(=O)C(C(C)c2c[nH]c3c(F)cccc23)O1 (racemic)	8 (≈ 29.1 µM)	16 (≈ 58.1 µM)	8 (≈ 29.1 µM)
CNC1=NC(=O)C(C(C)c2c[nH]c3ccc(F)cc23)O1 (racemic)	32 (≈ 116 µM)	128 (≈ 465 µM)	64 (≈ 232 µM)
CC(c1c[nH]c2cccc(F)c12)C1SC(N)=NC1=O (racemic)	16 (≈ 57.7 µM)	> 128	> 128
CNC1=NC(=O)C(C(C)c2c[nH]c3ccc(C)cc23)O1 (racemic)	> 128	> 128	> 128
CNC1=NC(=O)C(C(C)c2c[nH]c3cccc(Br)c23)O1 (racemic)	4 (≈ 11.9 µM)	> 128	> 128
CNC1=NC(=O)C(C(C)c2c[nH]c3cccc(N4CCCCC4)c23)O1 (racemic)	64 (≈ 188 µM)	> 128	> 128
CNC1=NC(=O)C(C(C)c2c[nH]c3cccc(OCc4ccccc4)c23)O1 (racemic)	> 128	> 128	> 128
CNC1=NC(=O)C(C(C)c2c[nH]c3cc(Br)ccc23)O1 (racemic)	> 128	4 (≈ 11.9 µM)	16 (≈ 47.6 µM)
CNC1=NC(=O)C(C(C)c2c[nH]c3ccc(Br)cc23)O1 (racemic)	> 128	4 (≈ 11.9 µM)	64 (≈ 190 µM)
CC(c1c[nH]c2cccc(F)c12)C1OC(N)=NC1=O (racemic)	16 (≈ 61.2 µM)	> 128	> 128
CNC1=NC(=O)C(C(C)c2c[nH]c3cc(C)ccc23)O1 (racemic)	> 128	16 (≈ 59 µM)	8 (≈ 29.5 µM)
CNC1=NC(=O)C(C(C)c2c[nH]c3cccc(F)c23)S1 (racemic)	8 (≈ 27.5 µM)	> 128	> 128
CNC1=NC(=O)C(C(C)c2c[nH]c3cccc(Cl)c23)S1 (racemic)	8 (≈ 26 µM)	> 128	> 128
CNC1=NC(=O)C(C(C)c2c[nH]c3cccc(F)c23)O1 (racemic)	1 (≈ 3.63 µM)	4 (≈ 14.5 µM)	1 (≈ 3.63 µM)
CNC1=NC(=O)C(C(C)c2c[nH]c3cccc(O)c23)O1 (racemic)	> 128	> 128	8 (≈ 29.3 µM)
CC(c1c[nH]c2ccccc12)C1SC(N)=NC1=O (racemic)	8 (≈ 30.8 µM)	> 128	> 128
CNC1=NC(=O)C(C(C)c2c[nH]c3c(Br)cccc23)O1 (racemic)	> 128	> 128	> 128
CNC1=NC(=O)C(C(C)c2c[nH]c3ccccc23)O1 (racemic)	1 (≈ 3.89 µM)	1 (≈ 3.89 µM)	1 (≈ 3.89 µM)
CC(c1c[nH]c2ccccc12)C1OC(N)=NC1=O (racemic)	8 (≈ 32.9 µM)	> 128	> 128
CNC1=NC(=O)C(C(C)c2c[nH]c3cccc(N4CCCC4)c23)O1 (racemic)	128 (≈ 392 µM)	> 128	> 128
